In the oligonucleotide strings, read from the 5' end, every base follows the letter of its sugar. An asterisk marks phosphorothioate; unmarked linkages are phosphodiester. Other units and linkages are bracketed, terminal groups are in braces. A string of capitals states the bases alone. e = 2'-O-(2-methoxyethyl) (MOE); [5mC] = 5-methylcytosine
How the values were obtained:
Type in all cases: cell-based, human
Glut4 = Glut4 mRNA expression in adipocytes (real-time PCR)
adipocytes = experiment: Triglyceride accumulation assay in adipocytes
HSL = HSL mRNA expression in adipocytes (real-time PCR)
PPARγ = PPARγ mRNA expression in adipocytes (real-time PCR)
aP2 = aP2 mRNA expression in adipocytes (real-time PCR); conditions: for AP2 mRNA: differentiating adipocytes, control = treatment with ISIS 342673; for aP2 mRNA: differentiating adipocytes transfected with oligomeric compound, Table 75
[1] = Table 17, differentiating adipocytes, control = treatment with ISIS 342673
[2] = differentiating adipocytes transfected with oligomeric compound, Table 75
[3] = Table 18, differentiating adipocytes, control = treatment with ISIS 342673

Row | Substance | GLUT4 mRNA (Glut4; [1]) | GLUT4 mRNA (Glut4; [2]) | TG (triglyceride accumulation) (adipocytes; [1]) | TG (triglyceride accumulation) (adipocytes; [2]) | HSL mRNA (HSL; [1]) | HSL mRNA (HSL; [2]) | PPAR gamma mRNA (PPARγ; [1]) | PPAR gamma mRNA (PPARγ; [2]) | AP2 mRNA (aP2; Table 17) | aP2 mRNA (aP2) | GLUT4 mRNA (Glut4; [3]) | TG (triglyceride accumulation) (adipocytes; [3]) | HSL mRNA (HSL; [3]) | PPAR gamma mRNA (PPARγ; [3]) | AP2 mRNA (aP2; Table 18)
1 | 328127 (antisense eA*eA*e[5mC]*eG*eA*eT*eA*eA*eA*eA*e[5mC]*eA*eT*eA*e[5mC]*eT*eT*eG*eT*e[5mC]*eA) [compound 328127] | 80.8 percentage of control | 75 percentage of untreated control (UTC) | 74.5 percentage of control | 81 percentage of untreated control (UTC) | 89.7 percentage of control | 93 percentage of untreated control (UTC) | 77.6 percentage of control | 85 percentage of untreated control (UTC) | 86.9 percentage of control | 95 percentage of untreated control (UTC) |  |  |  |  | 
2 | 344342 (AUGCUUUUUGGGGUAAGGGCUU; anti-miR; all 2'-MOE, all phosphorothioate, methylation of C and T or U not given here) [compound 344342] |  | 71 percentage of untreated control (UTC) |  | 88 percentage of untreated control (UTC) |  | 87 percentage of untreated control (UTC) |  | 83 percentage of untreated control (UTC) |  | 88 percentage of untreated control (UTC) |  |  |  |  | 
3 | 328103 (antisense e[5mC]*e[5mC]*e[5mC]*eA*eA*eT*eA*eT*e[5mC]*eA*eA*eA*e[5mC]*eA*eT*eA*eT*e[5mC]*eA) [compound 328103] |  | 86 percentage of untreated control (UTC) |  | 113 percentage of untreated control (UTC) |  | 87 percentage of untreated control (UTC) |  | 83 percentage of untreated control (UTC) |  | 96 percentage of untreated control (UTC) | 94.3 percentage of control | 110.2 percentage of control | 82.5 percentage of control | 74.3 percentage of control | 83.2 percentage of control
4 | 344341 (CACAUGGUUAGAUCAAGCACAA; anti-miR; all 2'-MOE, all phosphorothioate, methylation of C and T or U not given here) [compound 344341] |  | 14 percentage of untreated control (UTC) |  | 50 percentage of untreated control (UTC) |  | 33 percentage of untreated control (UTC) |  | 49 percentage of untreated control (UTC) |  | 42 percentage of untreated control (UTC) |  |  |  |  | 
5 | 328124 (antisense eA*eG*e[5mC]*eA*eG*eG*eT*eG*eA*eA*eG*eG*e[5mC]*eA*e[5mC]*e[5mC]*eT*eG*eG*e[5mC]*eT) [compound 328124] | 122.7 percentage of control | 105 percentage of untreated control (UTC) | 99.1 percentage of control | 108 percentage of untreated control (UTC) | 103.6 percentage of control | 96 percentage of untreated control (UTC) | 90.4 percentage of control | 92 percentage of untreated control (UTC) | 101.8 percentage of control | 118 percentage of untreated control (UTC) |  |  |  |  | 
6 | 346914 (AUCUGCACUGUCAGCACUUUA; all 2'-MOE, all phosphorothioate, methylation of C and T or U not given here) [compound 346914] |  | 16 percentage of untreated control (UTC) |  | 41 percentage of untreated control (UTC) |  | 27 percentage of untreated control (UTC) |  | 41 percentage of untreated control (UTC) |  | 48 percentage of untreated control (UTC) |  |  |  |  | 
7 | 346692 (UAAACGGAACCACUAGUGACUUG; all 2'-MOE, all phosphorothioate, methylation of C and T or U not given here) [compound 346692] |  | 11 percentage of untreated control (UTC) |  | 35 percentage of untreated control (UTC) |  | 18 percentage of untreated control (UTC) |  | 28 percentage of untreated control (UTC) |  | 26 percentage of untreated control (UTC) |  |  |  |  | 
8 | 328089 (antisense eA*e[5mC]*eT*eG*eT*eA*eG*eG*eA*eA*eT*eA*eT*eG*eT*eT*eT*eG*eA*eT*eA) [compound 328089] |  | 59 percentage of untreated control (UTC) |  | 67 percentage of untreated control (UTC) |  | 55 percentage of untreated control (UTC) |  | 79 percentage of untreated control (UTC) |  | 50 percentage of untreated control (UTC) |  |  |  |  | 
9 | 340360 (antisense GCAACUUAGUAAUGUGCAAUA; all 2'-MOE, all phosphorothioate, methylation of C and T or U not given here) [compound 340360] |  | 91 percentage of untreated control (UTC) |  | 106 percentage of untreated control (UTC) |  | 102 percentage of untreated control (UTC) |  | 96 percentage of untreated control (UTC) |  | 102 percentage of untreated control (UTC) |  |  |  |  | 
10 | 328101 (antisense eA*eA*eA*e[5mC]*e[5mC]*e[5mC]*e[5mC]*eT*eA*eT*e[5mC]*eA*e[5mC]*eG*eA*eT*eT*eA*eG*e[5mC]*eA) [compound 328101] |  | 57 percentage of untreated control (UTC) |  | 67 percentage of untreated control (UTC) |  | 78 percentage of untreated control (UTC) |  | 70 percentage of untreated control (UTC) |  | 83 percentage of untreated control (UTC) | 84.7 percentage of control | 108.6 percentage of control | 91.8 percentage of control | 79.3 percentage of control | 83.2 percentage of control
11 | 341796 (antisense UCAUACAGCUAGAUAACCAAAGA; all 2'-MOE, all phosphorothioate, methylation of C and T or U not given here) [compound 341796] |  | 58 percentage of untreated control (UTC) |  | 59 percentage of untreated control (UTC) |  | 67 percentage of untreated control (UTC) |  | 66 percentage of untreated control (UTC) |  | 74 percentage of untreated control (UTC) |  |  |  |  | 
12 | 344611 (ACAUUUUUCGUUAUUGCUCUUGA; anti-miR; all 2'-MOE, all phosphorothioate, methylation of C and T or U not given here) [compound 344611] |  | 3 percentage of untreated control (UTC) |  | 43 percentage of untreated control (UTC) |  | 31 percentage of untreated control (UTC) |  | 34 percentage of untreated control (UTC) |  | 34 percentage of untreated control (UTC) |  |  |  |  | 
13 | 328109 (antisense eA*eA*eA*eG*eA*eA*eG*eT*eA*eT*eA*eT*eG*e[5mC]*eA*eT*eA*eG*eG*eA*eA) [compound 328109] |  | 55 percentage of untreated control (UTC) |  | 23 percentage of untreated control (UTC) |  | 62 percentage of untreated control (UTC) |  | 69 percentage of untreated control (UTC) |  | 68 percentage of untreated control (UTC) | 106.6 percentage of control | 84.9 percentage of control | 86.9 percentage of control | 96.1 percentage of control | 84.9 percentage of control
14 | 348125 (GCUGGAUGCAAACCUGCAAAACU; anti-miR; all 2'-MOE, all phosphorothioate, methylation of C and T or U not given here) [compound 348125] |  | 65 percentage of untreated control (UTC) |  | 79 percentage of untreated control (UTC) |  | 64 percentage of untreated control (UTC) |  | 64 percentage of untreated control (UTC) |  | 67 percentage of untreated control (UTC) |  |  |  |  | 
15 | 344338 (antisense AUGCCCUUUUAACAUUGCACUG; all 2'-MOE, all phosphorothioate, methylation of C and T or U not given here) [compound 344338] |  | 66 percentage of untreated control (UTC) |  | 103 percentage of untreated control (UTC) |  | 89 percentage of untreated control (UTC) |  | 91 percentage of untreated control (UTC) |  | 86 percentage of untreated control (UTC) |  |  |  |  | 
16 | 328128 (antisense eA*eG*eT*eA*eA*e[5mC]*eT*eT*e[5mC]*eT*eT*eG*e[5mC]*eA*eG*eT*eT*eG*eG*eA) [compound 328128] | 101.9 percentage of control | 73 percentage of untreated control (UTC) | 98.7 percentage of control | 61 percentage of untreated control (UTC) | 94.1 percentage of control | 72 percentage of untreated control (UTC) | 84.0 percentage of control | 86 percentage of untreated control (UTC) | 100.7 percentage of control | 90 percentage of untreated control (UTC) |  |  |  |  | 

From patent US8178506B2, “Oligomeric compounds and compositions for use in modulation of small non-coding RNAs” (Regulus Therapeutics Inc., priority 2003, dated 2012)
